Measurements published in PMC5082792 (PLoS ONE, 2016).

Legend:
[1] = cited from earlier work
[2] = tested on: HIV; set-up: method as in PMID 17617270, PMID 17617271; settings: treatment-experienced patients, with optimized background regimen including DRV/r 600/100 mg BID; cited from earlier work
[3] = DRV plasma trough concentration ([DRV]plasma) by UPLC-DAD in HIV-1 infected patients, by CYP3A5 genotype-based expression status; type: in vivo, human
Description: After a clinical assessment and in addition to the samples routinely collected for the clinical follow-up (viral load, CD4 cell count), two more blood samples were drawn immediately before drug intake, with the highest timing precision conceivable given the ambulatory context of the study recruitment. […] In order to obtain a post-intake delay as close as possible to the trough sampling time, each patient was personally contacted by phone a few days before the study visit to ensure not taking the medication prior to blood sampling.
Plasma was then collected and stored at -20°C until the day of quantification.
Genotype and allele frequencies were calculated and deviations from Hardy-Weinberg equilibrium (HWE) were evaluated using exact tests.
The patients were also classified into CYP3A5 expressors (CYP3A5*1 allele carriers) and CYP3A5 non-expressors (CYP3A5*3 homozygous).

[4] = addition of ETR 200mg bid to DRV/r 600/100mg bid; cited from earlier work

Compound	decrease of ETR exposure ([1]; DRV/r with ETR 100mg twice daily compared to ETR alone)	virological efficacy, immunological recovery and clinical progression versus placebo [2]	DRV PK parameters (in particular Ctrough and Cmax) ([1]; DRV/r 600/100mg bid with ETR 100mg or 200mg bid, healthy volunteers)	decrease of plasma drug concentration by the drug-drug interaction ([3]; CYP3A5 expressors versus non-expressors, DRV with ETR)	mean [DRV]plasma (geometric mean trough concentration) ([3]; overall, all 135 patients)	[DRV]plasma of a single patient ([3]; person, CYP3A5 expressor, DRV/r and ETR, detectable viral load)	DRV plasma concentration (geometric mean) ([3]; subgroup DRV/r 600/100mg BID plus ETR n = 13, CYP3A5 expressors n = 5)	DRV plasma concentration (geometric mean) ([3]; subgroup DRV/r 600/100mg BID plus ETR n = 13, CYP3A5 non-expressors n = 8)	DRV plasma concentration (geometric mean) ([3]; subgroup DRV/r 600/100mg BID, CYP3A5 expressors n = 19)	DRV plasma concentration (geometric mean) ([3]; subgroup DRV/r 600/100mg BID, CYP3A5 non-expressors n = 23)	DRV plasma concentration (geometric mean) ([3]; subgroup DRV/r 800/100mg QD, CYP3A5 expressors n = 41)	DRV plasma concentration (geometric mean) ([3]; subgroup DRV/r 800/100mg QD, CYP3A5 non-expressors n = 52)	increase of DRV AUC [4]
Cc1cc(C#N)cc(C)c1Oc1nc(Nc2ccc(C#N)cc2)nc(N)c1Br [ETR, Etravirine]	37%	superiority											
CC(C)CN(C[C@@H](O)[C@H](Cc1ccccc1)NC(=O)O[C@H]1CO[C@H]2OCC[C@H]21)S(=O)(=O)c1ccc(N)cc1 [DRV, Darunavir]			unchanged	more than 55%	1805 ng/mL	652 ng/mL	• 1486ng/ml • (CI95%:725–3044) • n = 5	• 3141ng/ml • (CI95%: 2042–4831) • n = 8	• 2411 • (CI95%: 1895–3067) • n = 19 ng/ml	• 2430 • (CI95%: 1817–3249) • n = 23 ng/ml	• 1693ng/ml • (CI95%:1314–2182) • n = 41	• 1498ng/ml • (CI95%: 1227–1828) • n = 52	14%
